The results in this text go back to patent publication US20100222434A1, “PHARMACEUTICAL COMPOSITION FOR […]-BETA PROTEIN ACCUMULATION” (Sumitomo Chemical Company, Limited, priority 2007, published 2010).

The test system of the assay is Aβ accumulation in cultured nerve cells (CHP212 cells). Briefly: Measurement of fluctuation in the amount of Aβ accumulation in cultured nerve cells. The note with it: human neuroblastoma CHP212 cells; Aβ in the medium by ELISA (Amyloid β1-42 kit) 48 hours after addition of test substance; 10^−11 M to 10^−6 M; versus DMSO control (100%). The class given is cell-based. An excerpt:
FIG. 1 is a diagram showing results of measuring fluctuation caused by a test substance of the formula (II) in the amount of Aβ accumulation in cultured nerve cells (CHP212 cells).
In the diagram, each column represents, starting from the left, a result of measurement obtained in a control well to which only a solvent (DMSO) has been added, in a well to which the test substance has been added so that its final concentration can be 10^−11 M (10^−11 M), in a well to which the test substance has been added so that its final concentration can be 10^−10 M (10^−10 M), in a well to which the test substance A has been added so that its final concentration can be 10^−9 M (10^−9 M), in a well to which the test substance has been added so that its final concentration can be 10^−8 M (10^−8 M), in a well to which the test substance has been added so that its final concentration can be 10^−7 M (10^−7 M), and in a well to which the test substance has been added so that its final concentration can be 10^−6 M (10^−6 M). The results are shown in % by setting a result obtained in a control well to which only a solvent (DMSO) has been added as 100%. […]
(In an ELISA, binding on a coated surface is turned into a signal by an enzyme label.)

SMILES strings stand for the structures.

As to `CCCN(CC1CC1)c1ccc(C#N)c(C(F)(F)F)c1` [formula (II)], the “amount of Aβ accumulation” value is “markedly decreased”.
